The subject of the experiment is J-p53 (OsJAZ^33-p53). Briefly: Coronatine-dependent degradation of J-p53 in H9 hESCs (western blot quantification). The conditions noted are these: 50 μM coronatine, 1 day. The class given is cell-based, human. The protocol: FIGS. 11A-11G illustrate a coronatine-induced degradation rescue system. […] GFP fluorescence was measured by flow cytometry and % degradation was calculated. The corresponding components and biological replicate number (n) are indicated. The bar for pJAZ 6-Os23 is in grey color, to indicate reduced GFP fluorescence in non-treated cells (FIG. 10F). […] GFP fluorescence was measured using flow cytometry. The experiment was repeated three times, and representative results are presented. In FIGS. 11C-11D, H9 hESCs were infected with pJAZ NLS-GFP-OsJAZ^33 (“GFP-J”) or pJAZ OsJAZ^33-p^53 (“J-p53”) that harbors an shRNA targeting the 3′-UTR of p53 and an OsJAZ^33degron-fused p53 coding sequence lacking UTRs. […] P-values were calculated using unpaired Student's t-test. […] After 24 hours, microscopic bright-field (“BF”) and fluorescence images were taken (FIG. 11E, scale bars, 100 μm) and cells were subjected to flow analysis (FIG. 11F, contour plots; FIG. 11G, quantification, error bars represent standard deviation.). […]
Cells were lysed in RIPA-B buffer (20 mM Na2HPO4 pH 7.4, 150 mM NaCl and 1% Triton X-100) supplemented with Protease Inhibitor Cocktail (Roche) for 30 minutes on ice with occasional vortexing, followed by 30 minutes centrifugation at 13,000 relative centrifugal force at 4° C. […] Luminescence was detected with X-ray films, which were scanned, or using the Bio-Rad ChemiDoc MP System. […]
(In general: In western blotting, separated proteins are transferred to a membrane and probed.)

Consider one molecule from patent US11078496B2, “System for F-box hormone receptor regulated protein expression in mammalian cells” (ICAHN SCHOOL OF MEDICINE AT MOUNT SINAI, priority 2016, dated 2021).

Consider `CC[C@H]1C=C(C(=O)N[C@@]2(C(=O)O)C[C@@H]2CC)[C@H]2CCC(=O)[C@H]2C1` [coronatine, Coronatine], for which the “coronatine-dependent degradation of J-p53” value is given as 90%.
